Article PMC12655637, “Design, Synthesis, and Mechanistic Study of Novel Ciprofloxacin/Thiazole Chalcone Hybrids as Potential Anticancer Agents” (Pharmaceuticals, 2025)

Legend:
SN12C = test: NCI-60 screening, one-dose (10 µM) and five-dose, SRB; format: cell-based, human; conditions: Homo sapiens, 10 μM, Renal Cancer, read-out: Growth percentage
CCRF-CEM = test: as above; format: cell-based, human; conditions: Homo sapiens, 10 μM, Leukemia, read-out: Growth percentage
T-47D = test: as above; format: cell-based, human; conditions: 10 μM, Breast Cancer
SF-539 = test: as above; format: cell-based, human; conditions: Homo sapiens, SF-539, 10 μM; SF-539, CNS Cancer; read-out: Growth percentage
TK-10 = test: as above; format: cell-based, human; conditions: Homo sapiens; 10 μM; TK-10, Renal Cancer; read-out: Growth percentage
HL-60(TB) = test: as above; format: cell-based, human; conditions: Homo sapiens, HL-60, 10 μM; HL-60(TB), Leukemia; read-out: Growth percentage
NCI-H522 = test: as above; format: cell-based, human; conditions: Homo sapiens; 10 μM; NCI-H522, Non-Small-Cell Lung Cancer; read-out: Growth percentage
MDA-MB231/ATCC = test: as above; format: cell-based; conditions: 10 μM; MDA-MB231/ATCC, Breast Cancer
KM12 = test: as above; format: cell-based, human; conditions: Homo sapiens, KM12, 10 μM; KM12, Colon Cancer; read-out: Growth percentage
OVCAR-8 = test: as above; format: cell-based, human; conditions: Homo sapiens; 10 μM; OVCAR-8, Ovarian Cancer; read-out: Growth percentage
SK-OV-3 = test: as above; format: cell-based, human; conditions: Homo sapiens; 10 μM; SK-OV-3, Ovarian Cancer; read-out: Growth percentage
MOLT-4 = test: as above; format: cell-based, human; conditions: Homo sapiens; 10 μM; MOLT-4, Leukemia; read-out: Growth percentage
MDA-MB-468 = test: as above; format: cell-based, human; conditions: Homo sapiens, MDA-MB-468, 10 μM; MDA-MB-468, Breast Cancer; read-out: Growth percentage
Excerpt: Control cells Test cells FLD
available usually at NCI library.
An aliquot of frozen drug concentrate is […]

ACHN = test: as above; format: cell-based, human; conditions: Homo sapiens, 10 μM, Renal Cancer, read-out: Growth percentage
OVCAR-5 = test: as above; format: cell-based, human; conditions: 10 μM; OVCAR-5, Ovarian Cancer
HT29 = test: as above; format: cell-based, human; conditions: Homo sapiens, HT-29; 10 μM; HT29, Colon Cancer; read-out: Growth percentage
SW-620 = test: as above; format: cell-based, human; conditions: Homo sapiens; 10 μM; SW-620, Colon Cancer; read-out: Growth percentage
HOP-62 = test: as above; format: cell-based, human; conditions: Homo sapiens, HOP-62, 10 μM; HOP-62, Non-Small-Cell Lung Cancer; read-out: Growth percentage
A549/ATCC = test: as above; format: cell-based, human; conditions: Homo sapiens, 10 μM, Non-Small-Cell Lung Cancer, read-out: Growth percentage
UACC-257 = test: as above; format: cell-based, human; conditions: Homo sapiens; 10 μM; UACC-257, Melanoma; read-out: Growth percentage
NCI-H226 = test: as above; format: cell-based, human; conditions: Homo sapiens; 10 μM; NCI-H226, Non-Small-Cell Lung Cancer; read-out: Growth percentage
SNB-19 = test: as above; format: cell-based; conditions: Homo sapiens; 10 μM; SNB-19, CNS Cancer; read-out: Growth percentage
[1] = system: 60 human cancer cell lines; test: NCI-60 screening, full panel (mean growth, MID a, ranges over all lines); conditions: Homo sapiens, read-out: Mean growth percentage
MDA-MB-435 = test: NCI-60 screening, one-dose (10 µM) and five-dose, SRB; format: cell-based; conditions: Homo sapiens, MDA-MB-435, read-out: Growth percentage, 10 μM; MDA-MB-435, Melanoma
NCI/ADR-RES = test: as above; format: cell-based, human; conditions: Homo sapiens, 10 μM, Ovarian Cancer, read-out: Growth percentage
HS 578T = test: as above; format: cell-based, human; conditions: Homo sapiens, 10 μM, Breast Cancer, read-out: Growth percentage
HCT-15 = test: as above; format: cell-based, human; conditions: Homo sapiens; 10 μM; HCT-15, Colon Cancer; read-out: Growth percentage
SK-MEL-2 = test: as above; format: cell-based, human; conditions: Homo sapiens; 10 μM; SK-MEL-2, Melanoma; read-out: Growth percentage
OVCAR-3 = test: as above; format: cell-based; conditions: Homo sapiens; 10 μM; OVCAR-3, Ovarian Cancer; read-out: Growth percentage
BT-549 = test: as above; format: cell-based; conditions: Homo sapiens; 10 μM; BT-549, Breast Cancer; read-out: Growth percentage

## COc1ccc(/C=C/C(=O)c2sc(SCC(=O)N3CCN(c4cc5c(cc4F)c(=O)c(C(=O)O)cn5C4CC4)CC3)nc2C)cc1 [Compound 4j, (E)-1-Cyclopropyl-6-fluoro-7-(4-(2-((5-(3-(4-methoxyphenyl)acryloyl)-4-methylthiazol-2-yl)thio)acetyl)piperazin-1-yl)-4-oxo-1,4-dihydroquinoline-3-carboxylic Acid]
SN12C
  activity at 10 µM: 96.2%
CCRF-CEM
  activity at 10 µM: 110%
T-47D
  Growth percentage: 94.7%
SF-539
  activity at 10 µM: 97.5%
TK-10
  activity at 10 µM: 102%
HL-60(TB)
  activity at 10 µM: 101%
NCI-H522
  activity at 10 µM: 99%
MDA-MB231/ATCC
  Growth percentage: 94.8%
KM12
  activity at 10 µM: 112%
OVCAR-8
  activity at 10 µM: 94.6%
SK-OV-3
  activity at 10 µM: 115%
MOLT-4
  activity at 10 µM: 99.7%
MDA-MB-468
  activity at 10 µM: 107%
ACHN
  activity at 10 µM: 97.4%
OVCAR-5
  Growth percentage: 110.0%
HT29
  activity at 10 µM: 108%
SW-620
  activity at 10 µM: 123%
HOP-62
  activity at 10 µM: 98.3%
A549/ATCC
  activity at 10 µM: 105%
UACC-257
  activity at 10 µM: 114%
NCI-H226
  activity at 10 µM: 102%
SNB-19
  activity at 10 µM: 103%
[1]
  activity at 10 µM: 105%
MDA-MB-435
  activity at 10 µM: 108%
NCI/ADR-RES
  activity at 10 µM: 109%
HS 578T
  activity at 10 µM: 96.4%
HCT-15
  activity at 10 µM: 104%
SK-MEL-2
  activity at 10 µM: 104%
OVCAR-3
  activity at 10 µM: 174%
BT-549
  activity at 10 µM: 102%
